# Measured values taken from patent publication US20130197036A1, “TRANSDERMAL ABSORPTION PREPARATION” (priority 2010, published 2013).
# Tests used:
# [1] = test system: fungi, azole antifungal agent-resistant fungi; conditions: Patent Document 1; cited from earlier work
# [2] = Octanol/water partition coefficient; assay type: physicochemical; conditions: in the range of pH 3 to 9
# From the text: However, the octanol/water partition coefficient of compound A in the range of pH 3 to 9 is less than 0.05, which greatly differs from the partition coefficient (100 to 1000) of a compound generally having high membrane permeability. Compound A tends to be difficult to permeate through a membrane. Thus, it is difficult to provide a transdermal preparation comprising compound A or a salt thereof and having transdermal absorbability sufficient to exert a pharmacological effect. A transdermal preparation of compound A or a salt thereof is not known.
compound,measurement,setting,value
"N=C(N)c1ccc(OCCCC2CCN(CCCOc3ccc(C(=N)N)cc3)CC2)cc1 [compound A, 4-{3-[4-(3-{4-[Amino(imino)methyl]phenoxy}propyl)-1-piperidinyl]propoxy}benzamidine]",antifungal activity (in words),[1],strong antifungal activity
same,octanol/water partition coefficient,[2],less than 0.05
